Reference: article PMC5773577, “Novel Miniature Membrane Active Lipopeptidomimetics against Planktonic and Biofilm Embedded Methicillin-Resistant Staphylococcus aureus” (Scientific Reports, 2018)
≈ marks a conversion by molar mass, not a printed value. Residues, ends and D or L forms follow the SMILES beside them. No end group written: not given here.

Key:
MRSA ATCC 33591 [1] = test: Membrane depolarization assay, DiSC3(5); assay type: cell-based, Staphylococcus aureus; conditions: 2 min, DiSC3(5), HEPES-glucose buffer pH 7.2, 37 °C, mean ± S.D., two days
Description: The cytoplasmic membrane depolarization in MRSA ATCC 33591 strain was measured using membrane potential sensitive dye 3,3′-dipropylthiacarbocyanine iodide (DiSC3(5)) with a protocol described previously with slight modifications[23],[48]. Briefly, exponential phase cells grown in MHB were harvested by centrifugation, washed and re-suspended in respiration buffer (5 mM HEPES, 20 mM glucose, pH 7.2) to 2.5 × 10^6 CFU/mL. The cells were divided into 1 mL aliquots and incubated with 3.6 μM of DiSC3(5) (in dark) for 30 min to get steady baseline fluorescence intensity. The dye-loaded cells (800 μL) were then treated with peptidomimetics at respective 1× and 4× MIC concentrations (2–20 μL) and consequent fluorescence increase after 2 min of addition was measured in a Shimadzu RF-5301 PC spectrofluorimeter. As controls IL, melittin and VAN were also assayed under identical conditions. The samples were excited at 622 nm and emission was recorded between 650–700 nm with 3 nm slit width for both excitation and emission. The temperature was maintained at 37 °C throughout the experiment. Depolarization kinetics was measured at 4 × MIC of test agents for 5 min. The experiment was repeated on two different days and for Fig. 3 panel (A) mean ± S.D. data for % depolarization relative to melittin control (10 μM) set as 100% is presented here. For panel (B) representative data is shown here. The viability of dye-loaded cells corresponding to depolarization experiment at 4 × MIC concentration was also measured by plating the diluted aliquots onto BHI agar plates.

MRSA (ATCC 33591) = test: microbe, parasite or virus in culture; assay type: cell-based, Staphylococcus aureus; conditions: MHB, 2–5 × 10^5 CFU/mL, 16–18 h, 37 °C; for Minimum inhibitory concentration, MIC: OD600
Description: (§1) The antibacterial activity was evaluated as MIC using slight modifications to a serial broth micro dilution method as reported previously[66],[67]. Briefly, to each treatment well of the 96-well plate (Corning Incorporated, USA) 10 μL of peptidomimetic/antibiotic was added and subsequently diluted serial 2-fold in 0.2% BSA (in 0.01% acetic acid). Then to each well of the first 11 columns 100 μL of mid-log phase bacterial suspension in MHB medium was added to get 2–5 × 10^5 CFU/mL. Cultures without test peptidomimetics/antibiotics were used as growth control. Uninoculated MHB medium was used as negative control. The microtitre plates were incubated overnight with agitation (180 rpm) at 37 °C. After 16–18 h incubation, absorbance was read at 600 nm using an ELISA plate reader (Molecular Devices, Sunnyvale, CA, USA). The experiments were carried out in duplicate on at least three different days.

MRSA ATCC 33591 [2] = test: Cell viability corresponding to calcein leakage experiment; assay type: cell-based, Staphylococcus aureus; conditions: calcein-loaded cells in PBS, 4 × MIC (melittin 10 μM), 2 h incubation
Description: To assess the effect of designed peptidomimetics on membrane integrity of MRSA ATCC 33591 strain a calcein-AM dye release experiment was performed using the protocol described previously with slight modifications[51]. Briefly, exponential phase MRSA ATCC 33591 culture was prepared in MHB medium as mentioned earlier and adjusted to OD600 = 1 (~10^9 CFU/mL) in PBS (10 mM sodium phosphate, 150 mM NaCl, pH 7.4). Thereafter, the cells were incubated at 37 °C with calcein-AM (2 μg/mL) in 10% MHB medium for 2 h. The calcein-loaded cells were washed once and re-suspended in PBS to OD600 = 0.5 (~10^8 CFU/mL). The cells were diluted 100× in PBS to get 3–5 × 10^5 CFU/mL and were incubated with different concentrations of test agents at 37 °C in dark for 2 h. Subsequently, calcein fluorescence was measured via flow cytometry (Becton Dickinson (BD) FACS verse, San Jose, CA) with excitation and emission wavelengths of 488 nm and 530 ± 30 nm, respectively. For each sample, 10,000 cells were acquired. As a positive control, melittin (10 μM) was assayed under identical conditions. The experiment was repeated on two different days and mean ± S.D. is presented here. […]
agar plates. The plates were incubated at 37 °C for 16-18 h and colonies were counted. […]

MRSA ATCC 33591 [3] = test: Membrane permeabilization assay, calcein-AM dye release, flow cytometry; assay type: cell-based, Staphylococcus aureus; conditions: PBS, 37 °C, mean ± S.D., two days
Description: To assess the effect of designed peptidomimetics on membrane integrity of MRSA ATCC 33591 strain a calcein-AM dye release experiment was performed using the protocol described previously with slight modifications. Briefly, exponential phase MRSA ATCC 33591 culture was prepared in MHB medium as mentioned earlier and adjusted to OD600 = 1 (~10^9 CFU/mL) in PBS (10 mM sodium phosphate, 150 mM NaCl, pH 7.4). Thereafter, the cells were incubated at 37 °C with calcein-AM (2 μg/mL) in 10% MHB medium for 2 h. The calcein-loaded cells were washed once and re-suspended in PBS to OD600 = 0.5 (~10^8 CFU/mL). […] Subsequently, calcein fluorescence was measured via flow cytometry (Becton Dickinson (BD) FACS verse, San Jose, CA) with excitation and emission wavelengths of 488 nm and 530 ± 30 nm, respectively. For each sample, 10,000 cells were acquired. As a positive control, melittin (10 μM) was assayed under identical conditions. The experiment was repeated on two different days and mean ± S.D. is presented here. Corresponding to leakage a viability assay at 4 × MIC of respective test agents was also performed by incubating samples for 2 h at 37 °C and plating the diluted aliquots on BHI agar plates.

S. aureus (ATCC 25923) = test: microbe, parasite or virus in culture; assay type: cell-based, Staphylococcus aureus; conditions: 2–5 × 10^5 CFU/mL, 16–18 h, 37 °C
Description: as §1

S. aureus (ATCC 29213) = test: microbe, parasite or virus in culture; assay type: cell-based, Staphylococcus aureus; conditions: 2–5 × 10^5 CFU/mL, 16–18 h, 37 °C, OD600, duplicate, at least three days
Description: as §1

S. aureus (ISP479C) = test: microbe, parasite or virus in culture; assay type: cell-based, Staphylococcus aureus; conditions: MHB, 2–5 × 10^5 CFU/mL, 16–18 h, 37 °C
Description: as §1

[4] = tested on: mouse red blood cells (RBCs); test: Hemolysis assay; assay type: cell-based; conditions: mouse RBC, up to 250 μg/mL, 1 h, 37 °C, PBS pH 7.4; 0.1% Triton X-100 = 100%; data not shown
Description: For the experiment, a previously defined procedure was used with slight modifications[67],[68]. Briefly, blood was withdrawn from mice on the day of the experiment. After washing red blood cells (RBC) twice with phosphate buffer saline (PBS: 35 mM sodium phosphate, 150 mM NaCl, pH 7.4), a 4% v/v suspension of RBC was prepared in the same buffer. In a 96-well plate, serial two-fold dilutions of desired concentrations of peptidomimetics (in PBS) were prepared (100 μL) in duplicate. To each well 100 μL of 4% v/v RBC suspension was added. The plates were incubated at 37 °C for 1 h. After 1 h, the plates were centrifuged at 1500 rpm for 10 min and 20 μL of the supernatant was transferred to a fresh 96-well plate containing 80 μL PBS. The hemoglobin release was quantified by measuring OD414 in an ELISA plate reader (Molecular Devices, Sunnyvale, CA, USA). Hemoglobin release from 0.1% Triton X-100 treated RBC was set as 100% lysis (Amax) while as negative control RBC suspended in PBS alone was used (APBS). Percentage hemolysis was calculated using the following equation:1 %hemolysis=[(Asample−APBS)/(Amax−APBS)]×100

S. aureus (ISP479R) = assay type: cell-based, Staphylococcus aureus; conditions: MHB, 2–5 × 10^5 CFU/mL, 16–18 h, 37 °C, OD600
Description: as §1

[5] = tested on: Methicillin-resistant S. epidermidis (ATCC 35984); test: microbe, parasite or virus in culture; assay type: cell-based, Staphylococcus epidermidis; conditions: Staphylococcus epidermidis, ATCC 35984 / MRSE; MRSE ATCC 35984; MHB, 2–5 × 10^5 CFU/mL, 16–18 h, 37 °C, OD600; read-out: Minimum inhibitory concentration, MIC
Description: as §1

MRSA (ATCC 43300) = test: microbe, parasite or virus in culture; assay type: cell-based, Staphylococcus aureus; conditions: Staphylococcus aureus, MHB, 2–5 × 10^5 CFU/mL, 16–18 h, 37 °C, OD600, read-out: Minimum inhibitory concentration, MIC
Description: as §1

[6] = tested on: E. faecium (E-7846), clinical isolate of vancomycin-resistant E. faecium; test: organism not typed; assay type: cell-based, Enterococcus faecium; conditions: read-out: Minimum inhibitory concentration, MIC
Description: as §1

[7] = tested on: E. faecium (E-447), clinical isolate of vancomycin-resistant E. faecium; test: organism not typed; assay type: cell-based, Enterococcus faecium; conditions: read-out: Minimum inhibitory concentration, MIC
Description: as §1

[8] = tested on: Vancomycin-resistant E. faecium (ATCC 700221); test: microbe, parasite or virus in culture; assay type: cell-based; conditions: Enterococcus faecium, ATCC700221, MHB, 2–5 × 10^5 CFU/mL, 16–18 h, 37 °C, read-out: Minimum inhibitory concentration, MIC
Description: as §1

E. faecalis (ATCC 29212) = test: microbe, parasite or virus in culture; assay type: cell-based; conditions: Enterococcus faecalis, ATCC29212, MHB, 2–5 × 10^5 CFU/mL, 16–18 h, 37 °C, read-out: Minimum inhibitory concentration, MIC
Description: as §1

[9] = Staphylococcus aureus, OD600, read-out: Minimum inhibitory concentration, MIC

## indolicidin (ILPWKWPWWPWRR; ends and bridges not checked; UniProt P33046 131-143, looked up) [naturally occurring Trp-Arg rich CAMP used as control]
MRSA ATCC 33591 [1]; at 4 × MIC
  % depolarization relative to melittin control (10 μM, set as 100%): 87.4 ± 5.5%
MRSA ATCC 33591 [1]; at MIC
  % depolarization relative to melittin control (10 μM, set as 100%): 48.3 ± 6.3%
MRSA (ATCC 33591)
  Minimum inhibitory concentration, MIC: 3.2 mg/L
MRSA ATCC 33591 [2]
  log reduction in viability: 1.8 log
MRSA ATCC 33591 [3]; at 4 × MIC, 2 min incubation
  % calcein leakage: 42.2 ± 27.9%
MRSA ATCC 33591 [3]; at 4 × MIC, 2 h incubation
  % calcein leakage: 50.6 ± 23.6%
MRSA ATCC 33591 [3]; at MIC, 2 min incubation
  % calcein leakage: 6.2 ± 8.8%
MRSA ATCC 33591 [3]; at MIC, 2 h incubation
  % calcein leakage: 2.7 ± 3.9%

## N=C(N)NCCC[C@H](NC(=O)C(Cc1c(F)c(F)c(F)c(F)c1F)NC(=O)[C@H](CCCNC(=N)N)NC(=O)[C@@H](N)Cc1c[nH]c2ccccc12)C(=O)N[C@@H](Cc1c[nH]c2ccccc12)C(N)=O (stereo partly drawn) [S-4, Trp-Arg-(F5-Phe propionic acid)-Arg-Trp-CONH2] (HELM PEPTIDE1{W.R.[O=C(C(Cc1c(F)c(F)c(F)c(F)c1F)N[*:1])[*:2]].R.W.[am]}$$$$V2.0)
MRSA (ATCC 33591)
  Minimum inhibitory concentration, MIC: 45.4 mg/L (≈ 48.4 µM)
S. aureus (ATCC 25923); MHB, OD600
  Minimum inhibitory concentration, MIC: 45.4 mg/L (≈ 48.4 µM)
S. aureus (ATCC 29213); MHB
  Minimum inhibitory concentration, MIC: 45.4 mg/L (≈ 48.4 µM)
S. aureus (ISP479C); OD600
  Minimum inhibitory concentration, MIC: 45.4 mg/L (≈ 48.4 µM)
[4]
  % hemolysis: < 5%
S. aureus (ISP479R)
  Minimum inhibitory concentration, MIC: 45.4 mg/L (≈ 48.4 µM)

## Cc1onc(-c2ccccc2)c1C(=O)N[C@@H]1C(=O)N2[C@@H]1SC(C)(C)[C@@H]2C(=O)O [OXA, oxacillin]
[5]
  MIC: > 45.4 mg/L
MRSA (ATCC 33591); [9]
  MIC: 56.8 mg/L (≈ 141 µM)
S. aureus (ATCC 25923); Staphylococcus aureus, ATCC25923, MHB, OD600, read-out: Minimum inhibitory concentration, MIC
  MIC: < 0.3 mg/L
S. aureus (ATCC 29213); Staphylococcus aureus, ATCC29213, MHB, read-out: Minimum inhibitory concentration, MIC
  MIC: < 0.3 mg/L
MRSA (ATCC 43300)
  MIC: 56.8 mg/L (≈ 141 µM)
S. aureus (ISP479C); [9]
  MIC: 0.3 mg/L (≈ 0.747 µM)
[6]
  MIC: > 233 mg/L
[7]
  MIC: > 233 mg/L
[8]
  MIC: > 45.4 mg/L
E. faecalis (ATCC 29212)
  MIC: 5.6 mg/L (≈ 13.9 µM)
